Positions of bridges follow the written chain, without caps; N, C: chain ends. Residues, ends and D or L forms follow the SMILES beside them.
Tests used:
[1] = RP‐HPLC ACN elution (relative hydrophobicity); type: physicochemical; conditions: PFP column, water/acetonitrile gradient 5%–95% with 0.1% TFA, detection 220 nm, used by the paper as measure of overall hydrophobicity
Source text: Peptides were purified using a reverse‐phase high‐performance liquid chromatography (RP‐HPLC) system, Agilent Technologies (Santa Clara, CA, USA), with water and acetonitrile gradient (5%–95%), containing 0.1% TFA as the mobile phase. Pentafluorophenyl (PFP) column was used as the stationary phase, and samples were detected at the absorbance of 220 nm. Electronic spray ionization‐mass spectrometry (ESI‐MS) was used to determine the molecular weights of the synthesized peptides. Mass spectrometry data were provided by the AIMS Mass Spectrometry Laboratory at the University of Toronto. The peptide conjugates were characterized by electrospray ionization mass spectrometry (ESI‐MS) with agreement between the predicted and experimental molecular weights (Table 1). The peptides, cTAT‐folic acid conjugates, and fluorescein‐labeled conjugates were assessed for the peptide purity by analytical RP‐HPLC system (Figure S6–S11, Supporting Information). The broader peaks, peak splitting, and lower signaling intensity of cyclic peptide and their conjugates in the chromatograms are due to the limited interactions of the peptides with the HPLC columns. The appearance of double peaks for TAMRA conjugated linear and cyclic peptides and of folic acid is likely due to the use of 5‐ and 6‐TAMRA isomer, since isomeric dye conjugated molecules tend to show multiple peaks in RP‐HPLC.^[ [23] ^] […] The bioconjugation of folic acid with cTAT increased the overall hydrophobicity of the cyclic peptide (%ACN elution change from 24% to 34% for cTAT and cTAT‐folic acid respectively), and the ACN elution profile of the conjugates was similar to that of folic acid (Table 1).

[2] = system: DHFR activity in Caco‐2 cell lysates; test: DHFR assay in lysates of treated cells; type: cell-based; conditions: for DHFR activity in cell lysates: Caco‐2 treated at acidic pH for 4 h, NADPH absorbance 340 nm, mean, n = 3
Experimental: DHFR kit was purchased from Millipore Sigma and was used to analyze DHFR activity, according to manufacturer's protocol. DHFR enzyme catalyzes the reduction of dihydrofolic acid to tetrahydrofolic acid, which is reversible and NADPH‐dependent reaction.
Dihydrofolic acid + NADPH + H^+ ↔ Tetrahydrofolic acid + NADP^+
Briefly, 20 μM NADPH, 15 μM DHF, 5 μM DHFR, 50 mM Tris (pH 7.5), and 2 mg mL^−1 of cell lysates from Caco‐2 samples treated with 4.5 μM of cTAT‐folic acid conjugates and 20 μM folic acid were added to obtain final volume of 100 μL. DHFR activity at room temperature was monitored by continuously measuring the drop in NADPH concentration, by taking the absorbance at 340 nm for up to 2.5 min.
Figure 3 DHFR activity in units/mg of protein in Caco‐2 cells lysates, performed 4‐h post‐treatment. A) Cotreatment of cells with folic acid, cTAT‐folic acid conjugates, and myricetin and B) treatment of cell lysates with methotrexate (MTX). The values are mean ± standard error for n = 3, *p < 0.01. Units per mg indicate DHFR activity per mg of protein in the sample, where total protein content (mg) in each sample was measured by BCA assay.

[3] = system: IL‐1β and IFN‐β production in HD‐11 cells; test: Cytokine release (ELISA) upon IBDV infection; type: cell-based, chicken; conditions: HD‐11, IBDV at TCID50 for 1 h, then folic acid 20 μM or cTAT‐folic acid 4.5 μM, n = 3, p < 0.01
Experimental: A modified live IBDV vaccine, UNIVAX‐BDmild strain (ST12) from MSD Animal Health, was reconstituted with10 mL of PBS, and 500 μL aliquots were stored at −80 °C, according to previously reported procedures.^[ [25] ^] An aliquot of the vaccine was added to a tissue culture‐treated T‐25 flask containing confluent HD‐11 cells, and the flask was incubated at 37 °C with 5% CO2 for 1 h to reproduce the virus and to obtain multiplicity of infection (MOI = 1). Following this, 5 mL of media was added, and the cells were incubated for 72 h under the same conditions. After that, the supernatant was extracted, centrifuged for 10 min at 1000 × g, and 500 μL aliquots were taken out and kept at −80 °C to evaluate 50% tissue culture infective‐dose assay (TCID50) in HD‐11. […] The plate was incubated at 37 °C with 5% CO2 for 4 h, and TCID50 was evaluated by MTS assay, as described above.
HD‐11 and RAW 264.7 cells were cultured in folic acid free RPMI containing 10% FBS and 1% penicillin–[…] solution. […] After 24 h of incubation, cell culture supernatant were collected, and production of chicken IL‐1β and IFN‐β cytokines in HD‐11 was evaluated in triplicate by ELISA kits purchased from Genorise Scientific Inc. (Berwyn, PA 19 312, United States). The production of mouse IL‐1β, TNF‐α and IL‐10 was quantified in RAW 264.7 cells in triplicates by ELISA assay. […]

[4] = system: IL‐1β, TNF‐α and IL‐10 production in RAW 264.7 cells; test: Cytokine release (ELISA) upon LPS challenge; type: cell-based, mouse; conditions: RAW264.7, LPS for 1 h, then folic acid 20 μM or cTAT‐folic acid 4.5 μM, n = 3, p < 0.01
Experimental: HD‐11 and RAW 264.7 cells were cultured in folic acid free RPMI containing 10% FBS and 1% penicillin–[…] solution. Cytokine release profile from HD‐11 chicken macrophage cells and RAW 264.7 […] macrophage cells was studied by treating cells in growth phase (≈70% confluency) with 1 μg mL^−1 LPS or with IBDV at TCID50 for 1 h, followed by the addition of folic acid (20 μM) and cTAT‐folic acid conjugates (4.5 μM) in serum‐free, folic acid‐negative RPMI‐1640 medium. After 24 h of incubation, cell culture supernatant were collected, and production of chicken IL‐1β and IFN‐β cytokines in HD‐11 was evaluated in triplicate by ELISA kits purchased from Genorise Scientific Inc. (Berwyn, PA 19 312, United States). The production of mouse IL‐1β, TNF‐α and IL‐10 was quantified in RAW 264.7 cells in triplicates by ELISA assay.
Figure 4 ELISA assay showing A) cytokine expression in HD‐11 cells upon IBDV infection for 1 h, followed by the treatment with folic acid (20 μM) and cTAT‐folic acid conjugates (4.5 μM), and B) cytokine expression (IL‐1β, IL‐10, and TNF‐α) upon LPS (0.5 μg mL^−1) challenge of RAW 264.7 for 1 h, followed by the treatment with folic acid (20 μM) and cTAT‐folic acid conjugates (4.5 μM) for 4 h. The values are mean ± standard error for n = 3, *p < 0.01 and **p < 0.05.

trypsin = system: T1, trypsin; test: Trypsin treatment, intact peptide by HPLC; type: in vitro ADME; conditions: isolated enzyme trypsin
T1 construct: purchased Sigma Aldrich / VWR Life Sciences
Source text: (§1) Compared with the linear peptides, cyclic analogs are well documented for enhanced physiological stability and resistance to enzymatic degradation.^[ [20], [21], [22] ^]

Caco‐2 cells [5] = test: Cellular uptake of fluorophore‐labeled linear and cyclic peptides; type: cell-based; conditions: Caco‐2, fluorophore‐labeled peptides, fluorescence microscopy and cell lysates by microplate reader
Experimental: (§2) Caco‐2 and HD‐11 cells were then seeded in six‐well plates at a density of 2.0 × 10^5 cells per well, in 2 mL of RPMI no folic acid medium. After overnight incubation, the cells were further incubated for 4 h with fluorescent folic acid and with cTAT‐folic acid‐FL conjugates (4.5 μM) at 37 °C in a humidified atmosphere containing 5% CO2. The cells were washed with PBS, and relative fluorescence of the samples was analyzed with the microplate reader using excitation wavelength of 490 nm and emission wavelength of 520 nm.
as §1

HD‐11 cells = test: as above; type: cell-based, chicken; conditions: HD‐11, fluorophore‐labeled peptides, fluorescence microscopy and cell lysates by microplate reader
Experimental: as §2, §1

[6] = Trypsin treatment, intact peptide by HPLC; type: in vitro ADME; conditions: isolated enzyme trypsin, trypsin, HPLC chromatogram analysis, read-out: intact peptide after trypsin treatment
Source text: as §1

[7] = system: PCFT expression in Caco‐2 cells; test: WB analysis of PCFT/GAPDH expression; type: cell-based; conditions: Caco‐2, 50 μM, p < 0.01
Experimental: Caco‐2 cells were seeded in six well culture plate at 1 × 10^6 cells per well in RPMI 1640 folic acid negative medium for 24 h followed by the addition of folic acid, cTAT, and cTAT‐folic acid conjugates (0.1–200 μM) for 4 h. 0.5 mL of pre‐chilled RIPA lysis buffer at 4 °C was added to Caco‐2 cells in six‐well plate. The cell samples were scraped and centrifuged at 14 000 × g to remove cellular debris. The amount of protein in cell lysate was measured by using BCA assay. The protein samples (25 μg) were loaded directly onto 12% Tris·HCl polyacrylamide gels using 6X SDS loading buffer (1:1) containing DTT, and gel was run for 1 h at 110 V. After SDS‐PAGE, proteins were transferred to nitrocellulose membrane for 80 min at 110 V (Bio‐rad, Hercules, California, USA). […] Figure 2 PCFT/GAPDH expression in Caco‐2 cells was measured by the WBs as a function of concentration of, A) folic acid, B) cTAT‐folic acid conjugates, and C) comparison of cTAT‐folic acid conjugates (4.5 μM) with unconjugated cTAT + folic acid (4.5 μM).The experiments were replicated twice in triplicates (n = 3) and upon 4 h post‐treatment. […]

Caco‐2 cells [8] = test: Cellular uptake of fluorescein‐labeled folic acid and conjugates; type: cell-based; conditions: Caco‐2, 4.5 μM
Experimental: as §2
The cellular uptake of fluorophore‐labeled folic acid (folic acid‐FL) and cTAT‐folic acid conjugates (cTAT‐folic acid‐FL) was studied at 4.5 μM concentration in Caco‐2 cells, at the physiological and acidic pH.
Figure 1 Cellular uptake of fluorescein‐labeled folic acid and cTAT‐folic acid conjugates (4.5 μM) in Caco‐2 cells in the presence and absence of inhibitors at A) acidic and B) physiological pH. C) WB analysis of PCFT/GAPDH expression in Caco‐2 cells in the presence of 50 μM myricetin. The experiments were replicated in triplicates (n = 3). The values are mean ± standard error for n = 3, *p < 0.01.

[9] = folic acid 20 μM, cTAT‐folic acid 4.5 μM

Nc1nc(=O)c2nc(CNc3ccc(C(=O)N[C@@H](CCC(=O)O)C(=O)O)cc3)cnc2[nH]1 [Folic acid]
ACN elution [%] [1]: 34.06% | DHFR activity in cell lysates, cotreatment with myricetin ([2]; Caco‐2, acidic pH, 4 h, folic acid 20 μM, cTAT‐folic acid 4.5 μM, plus myricetin): 10 units mg^−1 of protein | DHFR activity in MTX‐treated cell lysates ([2]; Caco‐2 lysates plus methotrexate 100 μM): negligible DHFR activity | DHFR activity in cell lysates [2, 9]: 59 units mg^−1 of protein | production of proinflammatory cytokines in challenged macrophages [3]: reduced the production of proinflammatory cytokines | production of proinflammatory cytokines in challenged macrophages [4]: reduced the production of proinflammatory cytokines

N=C(N)NCCC[C@@H]1NC(=O)[C@H](CCCCN)NC(=O)[C@H](CCCCN)NC(=O)[C@H](CCCNC(=N)N)NC(=O)[C@H](CCCNC(=N)N)NC(=O)[C@H](CCC(N)=O)NC(=O)[C@H](CCCNC(=N)N)NC(=O)[C@H](CCCNC(=N)N)NC(=O)[C@H](CCCNC(=N)N)NC(=O)[C@@H](N)CCCCNC(=O)CC[C@@H](C(N)=O)NC(=O)[C@H](Cc2ccc(O)cc2)NC(=O)CNC1=O [cTAT] (H-KRRRQRRKKRGYE-NH2; lactam 1-13)
ACN elution [%] [1]: 24% | remaining at 1 h (trypsin): 49% | remaining at 20 h (trypsin): 27% | cellular uptake, cyclic versus linear peptide (Caco‐2 cells [5]): significantly higher cellular uptake | cellular uptake, cyclic versus linear peptide (HD‐11 cells): significantly higher cellular uptake | DHFR activity in cell lysates [2, 9]: no significant DHFR activity

N=C(N)NCCC[C@H](NC(=O)[C@H](CCCCN)NC(=O)[C@H](CCCCN)NC(=O)[C@H](CCCNC(=N)N)NC(=O)[C@H](CCCNC(=N)N)NC(=O)[C@H](CCC(N)=O)NC(=O)[C@H](CCCNC(=N)N)NC(=O)[C@H](CCCNC(=N)N)NC(=O)[C@H](CCCNC(=N)N)NC(=O)[C@@H](N)CCCCN)C(=O)NCC(=O)N[C@@H](Cc1ccc(O)cc1)C(=O)N[C@@H](CCC(=O)O)C(N)=O [linear peptide] (H-KRRRQRRKKRGYE-NH2; N-terminus assumed)
remaining at 1 h ([6]; 1 h incubation): 36% | remaining at 20 h ([6]; 20 h post‐treatment): 15% | cellular uptake, cyclic versus linear peptide (Caco‐2 cells [5]): lower uptake at all studied time points | cellular uptake, cyclic versus linear peptide (HD‐11 cells): lower uptake at all studied time points

O=c1c(O)c(-c2cc(O)c(O)c(O)c2)oc2cc(O)cc(O)c12 [myricetin]
PCFT expression compared with the untreated cells [7]: significantly downregulated

CONH2‐c[EYGRKKRRQRRRK]C(FL)‐NH‐folic acid (sidechain bridge or staple) [cTAT‐folic acid‐FL, fluorescein‐labeled cTAT‐folic acid conjugate, fluorescein on an inserted Cys]
ACN elution [%] [1]: 29.86% | difference in cellular uptake between acidic and physiological pH (Caco‐2 cells [8]): no significant difference | cellular uptake upon ethanol treatment of the cells (Caco‐2 cells [8]; physiological and acidic pH): only partially inhibited

Source: paper PMC12247024, “PCFT‐Independent Cellular Uptake of Cyclic Cell‐Penetrating Peptide‐Conjugated Folic Acid” (Chembiochem, 2025)
